Read-outs that look alike come from different tables or passages of the source. Marks after values point to notes of the source that are not given here. Ends that are not written are not given here.
Assays:
Type in all cases: cell-based
Conditions in all cases: 72 h
[1] = system: human T-cell acute lymphoblastic leukemia cells JurKat
Description: (§1) Human pancreatic cancer, hepatocellular carcinoma, colorectal cancer, ovarian cancer, cervical cancer, bladder cancer, melanoma, glioblastoma, neuroblastoma, glioma, osteosarcoma, myeloma, lymphoma, hematologic malignancies, and cholangiocarcinoma cells were cultured in an incubator at 37° C. with 5% CO2 until the density reached 90%, then digested and collected with trypsin, resuspended in a culture medium, and counted under a microscope; the cell concentration was adjusted to about 1.0×10^5 cells/mL; and the cell suspension was inoculated into a 96-well plate, with 100 μL per well, and incubated overnight in an incubator at 37° C. with 5% CO2. After the cells were completely attached to the wall, 100 μL of micropeptides MIAC with concentrations of 50 μM, 100 μM and 200 μM were added to form an administration group; and a culture medium without any medicament was used as a negative control group. After continuing incubation for 72 h, 100 μL of CCK8 was added to each well of the 96-well plate for dissolving. The absorbance OD was measured at a detection wavelength of 450 nm with a microplate reader, and the proliferation inhibition (PI) was calculated using the formula of PI (%)=1-administration group/negative control group. The experiment was repeated 3 times independently, the results were expressed as Mean±SD, and a statistical T test was performed, where *P<0.05 indicated a significant difference and **P<0.01 indicated an extremely significant difference.

[2] = system: human acute non-T non-B lymphocytic leukemia cells Reh
Description: as §1

[3] = system: human acute promyelocytic leukemia cells NB4
Description: as §1

[4] = system: human bladder cancer cells EJ
Description: as §1

[5] = system: human cerebral astrocytic glioblastoma cells U87-MG
Description: as §1

[6] = system: human chronic myeloid leukemia cells K562
Description: as §1

[7] = system: human colon cancer cells LOVO
Description: as §1

[8] = system: human colon cancer cells SW480
Description: as §1

[9] = system: human diffuse large B-cell lymphoma cells OCI-LY10
Description: as §1

[10] = system: human hepatocellular carcinoma cells HepG2
Description: as §1

[11] = system: human histiocytic lymphoma cells U937
Description: as §1

[12] = system: human malignant melanoma cells M14
Description: as §1

[13] = system: human malignant melanoma cells SK-mel-2
Description: as §1

[14] = system: human myeloid leukemia cells HL60
Description: as §1

[15] = system: human osteogenic sarcoma cells Saos-2
Description: as §1

[16] = system: human osteosarcoma cells MG-63
Description: as §1

[17] = system: human osteosarcoma cells U-2OS
Description: as §1

[18] = system: human ovarian cancer cells A2780
Description: as §1

[19] = system: human ovarian cancer cells SKOV3
Description: as §1

[20] = system: human pancreatic cancer cells Aspc-1
Description: as §1

[21] = system: human pancreatic cancer cells MIP-PaCa-2
Description: as §1

[22] = system: human pancreatic cancer cells PANC-1
Description: as §1

[23] = system: peripheral blood B lymphocytes RPMI-8226 in human multiple myeloma
Description: as §1

## MERAGVPGFSPRRSSVEAKMQSTSCSVRKSSTVTAWPAVVLLLSWGQRRGG [MIAC, micropeptide inhibiting actin cytoskeleton]
[1]; 50 μM
  OD: 0.984 ± 0.032
[1]; 100 μM
  OD: 0.730 ± 0.032**
[1]; 200 μM
  OD: 0.559 ± 0.038**
[2]; 50 μM
  OD: 0.964 ± 0.037
[2]; 100 μM
  OD: 0.687 ± 0.019**
[2]; 200 μM
  OD: 0.421 ± 0.029**
[3]; NB4, 50 μM
  OD: 1.177 ± 0.042**
[3]; NB4, 100 μM
  OD: 0.826 ± 0.066**
[3]; NB4, 200 μM
  OD: 0.624 ± 0.052**
[4]; 50 μM
  OD: 1.126 ± 0.017
[4]; 100 μM
  OD: 0.891 ± 0.009**
[4]; 200 μM
  OD: 0.628 ± 0.045**
[5]; 50 μM
  OD: 0.951 ± 0.019
[5]; 100 μM
  OD: 0.785 ± 0.029**
[5]; 200 μM
  OD: 0.656 ± 0.030**
[6]; K562, 50 μM
  OD: 1.004 ± 0.012**
[6]; K562, 100 μM
  OD: 0.544 ± 0.062**
[6]; K562, 200 μM
  OD: 0.338 ± 0.025**
[7]; 50 μM
  OD: 1.148 ± 0.008**
[7]; 100 μM
  OD: 0.970 ± 0.021**
[7]; 200 μM
  OD: 0.624 ± 0.026**
[8]; SW480, 50 μM
  OD: 0.640 ± 0.032**
[8]; SW480, 100 μM
  OD: 0.283 ± 0.007**
[8]; SW480, 200 μM
  OD: 0.147 ± 0.016**
[9]; OCI-LY10, 50 μM
  OD: 0.719 ± 0.028**
[9]; OCI-LY10, 100 μM
  OD: 0.598 ± 0.033**
[9]; OCI-LY10, 200 μM
  OD: 0.376 ± 0.019**
[10]; HepG2, 50 μM
  OD: 0.575 ± 0.047**
[10]; HepG2, 100 μM
  OD: 0.267 ± 0.022**
[10]; HepG2, 200 μM
  OD: 0.169 ± 0.015**
[11]; U937, 50 μM
  OD: 1.069 ± 0.028
[11]; U937, 100 μM
  OD: 0.821 ± 0.047**
[11]; U937, 200 μM
  OD: 0.684 ± 0.046**
[12]; M14, 50 μM
  OD: 1.585 ± 0.030
[12]; M14, 100 μM
  OD: 1.046 ± 0.060**
[12]; M14, 200 μM
  OD: 0.639 ± 0.046**
[13]; SK-mel-2, 50 μM
  OD: 1.302 ± 0.043**
[13]; SK-mel-2, 100 μM
  OD: 0.822 ± 0.060**
[13]; SK-mel-2, 200 μM
  OD: 0.570 ± 0.011**
[14]; HL60, 50 μM
  OD: 1.378 ± 0.029**
[14]; HL60, 100 μM
  OD: 0.725 ± 0.027**
[14]; HL60, 200 μM
  OD: 0.549 ± 0.023**
[15]; Saos-2, 50 μM
  OD: 1.198 ± 0.067
[15]; Saos-2, 100 μM
  OD: 0.946 ± 0.016**
[15]; Saos-2, 200 μM
  OD: 0.627 ± 0.052**
[16]; MG-63, 50 μM
  OD: 1.049 ± 0.011**
[16]; MG-63, 100 μM
  OD: 0.691 ± 0.033**
[16]; MG-63, 200 μM
  OD: 0.365 ± 0.009**
[17]; 50 μM
  OD: 0.887 ± 0.024
[17]; 100 μM
  OD: 0.596 ± 0.061**
[17]; 200 μM
  OD: 0.350 ± 0.013**
[18]; A2780, 50 μM
  OD: 0.985 ± 0.046**
[18]; A2780, 100 μM
  OD: 0.791 ± 0.067**
[18]; A2780, 200 μM
  OD: 0.441 ± 0.018**
[19]; SKOV3, 50 μM
  OD: 1.244 ± 0.282**
[19]; SKOV3, 100 μM
  OD: 0.843 ± 0.049**
[19]; SKOV3, 200 μM
  OD: 0.727 ± 0.038**
[20]; Aspc-1, 50 μM
  OD: 0.939 ± 0.015
[20]; Aspc-1, 100 μM
  OD: 0.711 ± 0.047**
[20]; Aspc-1, 200 μM
  OD: 0.509 ± 0.019**
[21]; MIP-PaCa-2, 50 μM
  OD: 0.898 ± 0.035
[21]; MIP-PaCa-2, 100 μM
  OD: 0.866 ± 0.035**
[21]; MIP-PaCa-2, 200 μM
  OD: 0.571 ± 0.038**
[22]; PANC-1, 50 μM
  OD: 1.027 ± 0.073
[22]; PANC-1, 100 μM
  OD: 0.708 ± 0.043**
[22]; PANC-1, 200 μM
  OD: 0.427 ± 0.02**
[23]; RPMI-8226, 50 μM
  OD: 2.008 ± 0.023
[23]; RPMI-8226, 100 μM
  OD: 1.001 ± 0.027**
[23]; RPMI-8226, 200 μM
  OD: 0.522 ± 0.028**
